The record followed here is patent US20240254087A1, “SELECTIVE, PARTIAL, AND ARRESTIN-BIASED 5-HT2A AGONISTS WITH UTILITY IN VARIOUS DISORDERS” (Saint Joseph's University, priority 2021, published 2024).

Structures are written as SMILES. “Also recorded” adds a separate entry of the source. Where two headings read alike, the source gives them in different places. A value given as a limit tells only on which side of the number the result lay.

Test [1] has as its target T1, 5-HT2A (Homo sapiens, UniProt P28223). Put plainly: cell-based. Also noted: expressed in transfected cells; host or cells: HEK293T, transient. The conditions noted are these: for EC50: BRET, mean ± SEM, read-out: 5-HT2A β-arrestin recruitment pEC50 (converted); for Emax: read-out: 5-HT2A β-arrestin Emax (% 5-HT), BRET, mean ± SEM. How it is done: (§1) After at least 18-24 hours, transfected cells were plated in poly-lysine coated 96-well white clear bottom cell culture plates in DMEM containing 1% dialyzed FBS at a density of 25-40,000 cells in 200 μL per well and incubated overnight. After approximately 20-24 hours, media was decanted and cells were washed with 60 μL of drug buffer (1×HBSS, 20 mM HEPES, pH 7.4), followed by 60 μL of drug buffer and pre-incubated in a humidified atmosphere at 37° C. before receiving drug stimulation. Drug stimulation was induced by adding 30 μL of a solution of drug (3X) diluted in McCorvy buffer (1×HBSS, 20 mM HEPES, pH 7.4, supplemented with 0.3% BSA fatty acid free, 0.03% ascorbic acid) and plates were incubated at the indicated time and temperature. Fifteen minutes before reading, 10 μL of the RLuc substrate, either coelenterazine h for β-Arrestin recruitment BRET^1 or coelenterazine 400a for Gq dissociation BRET^2 (Prolume/Nanolight, 5 μM final concentration) was addedper well. […] The BRET ratios of fluorescence/luminescence were calculated per well and were plotted as a function of drug concentration using Graphpad Prism 8 (Graphpad Software Inc., San Diego, CA).
Background: In BRET a luciferase serves as donor, and the signal depends on an acceptor being close.

The target in a further test is 5-HT2B (Homo sapiens, UniProt P41595). The experiment in a line: BRET Gq dissociation, 5-HT2B. The test is classed as cell-based. Also noted: expressed in transfected cells; host or cells: HEK293T, transient. How it is done:
After at least 18-24 hours, transfected cells were plated in poly-lysine coated 96-well white clear bottom cell culture plates in DMEM containing 1% dialyzed FBS at a density of 25-40,000 cells in 200 μL per well and incubated overnight. After approximately 20-24 hours, media was decanted and cells were washed with 60 μL of drug buffer (1×HBSS, 20 mM HEPES, pH 7.4), followed by 60 μL of drug buffer and pre-incubated in a humidified atmosphere at 37° C. before receiving drug stimulation. Drug stimulation was induced by adding 30 μL of a solution of drug (3X) diluted in McCorvy buffer (1×HBSS, 20 mM HEPES, pH 7.4, supplemented with 0.3% BSA fatty acid free, 0.03% ascorbic acid) and plates were incubated at the indicated time and temperature. Fifteen minutes before reading, 10 μL of the RLuc substrate, either coelenterazine h for β-Arrestin recruitment BRET^1 or coelenterazine 400a for Gq dissociation BRET^2 (Prolume/Nanolight, 5 μM final concentration) was addedper well. Plates were read for luminescence at 485 nm and fluorescent eYFP emission at 530 nm for BRET^1 and at 400 nm and fluorescent GFP2 emission at 510 nm for BRET2 at 1 second per well using a Mithras LB940 (Berthold). The BRET ratios of fluorescence/luminescence were calculated per well and were plotted as a function of drug concentration using Graphpad Prism 8 (Graphpad Software Inc., San Diego, CA).

Test [2] deals with T1, 5-HT2A. The experiment in a line: cell-based. Also noted: expressed in transfected cells; host or cells: HEK293T, transient. The conditions noted are these: for Emax: read-out: 5-HT2A Gq Emax (% 5-HT), BRET, mean ± SEM; for EC50: read-out: 5-HT2A Gq dissociation pEC50 (converted). On the procedure:
as §1

Another test has as its system male C57BL/6J mice. The experiment in a line: Head-twitch response (HTR) in mice. The test is classed as in vivo, mouse. Conditions: for ED50: Mus musculus. How it is done: Male C57BL/6J mice (6-8 weeks old) from Jackson Labs (Bar Harbor, ME, USA) were used for the behavioral experiments. The mice were housed on a reversed light-dark cycle (lights on at 1900 h, off at 0700 h) in an AAAC-approved vivarium at the University of California San Diego. Mice were housed up to four per cage in a climate-controlled room and with food and water provided ad libitum except during behavioral testing. Testing was performed between 1000 and 1800 h (during the dark phase of the light-dark cycle). The studies were conducted in accordance with National Institutes Health (NIH) guidelines and were approved by the University of California San Diego Institutional Animal Care and Use Committee.
The mice were allowed to recover from the magnet implantation surgeries for at least 1 week prior to behavioral testing. HTR experiments were conducted in a well-lit room, and the mice were allowed to habituate to the room for at least 1 h prior to testing. Head twitches was assessed in a 12-cm diameter glass cylinder surrounded by a magnetometer coil. Coil voltage was low-pass filtered (2 kHz), amplified, and digitized (20-kHz sampling rate) using a Powerlab/8SP with LabChart v 7.3.2 (ADInstruments, Colorado Springs, CO, USA). […] HTR counts were analyzed using one-way ANOVAs. Dunnett's test was used for post hoc comparisons.

The target of a further test is T2, 5-HT2C (Homo sapiens, UniProt P28335).
T2 sequence (P28335 33-458): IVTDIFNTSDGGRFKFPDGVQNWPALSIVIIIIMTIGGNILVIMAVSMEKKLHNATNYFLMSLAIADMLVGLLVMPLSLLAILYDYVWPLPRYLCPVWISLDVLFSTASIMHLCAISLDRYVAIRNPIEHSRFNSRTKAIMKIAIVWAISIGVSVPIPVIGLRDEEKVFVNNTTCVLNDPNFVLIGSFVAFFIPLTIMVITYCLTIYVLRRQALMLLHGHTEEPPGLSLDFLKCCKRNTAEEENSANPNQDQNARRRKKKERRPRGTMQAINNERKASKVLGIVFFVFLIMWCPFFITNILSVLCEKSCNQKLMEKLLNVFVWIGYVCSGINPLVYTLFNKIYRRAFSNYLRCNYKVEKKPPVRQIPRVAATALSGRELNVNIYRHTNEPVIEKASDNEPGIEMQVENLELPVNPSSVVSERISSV
Put plainly: BRET Gq dissociation, 5-HT2C. The conditions noted are these: for Emax: read-out: 5-HT2C Gq Dissociation (BRET) EMAX ± SEM (%5-HT); for EC50: read-out: 5-HT2C Gq Dissociation (BRET) pEC50 ± SEM (converted). Also noted: expressed in transfected cells; host or cells: HEK293T, transient. The test is classed as cell-based. On the procedure:
as §1

[3] abbreviates: read-out: HTR ED50 mg/kg (95% CI), SC, except DOI and 25D-NBOMe IP.
The mark [4] stands for this setting: read-out: HTR ED50 μmol/kg (95% CI), SC, except DOI and 25D-NBOMe IP.

T1 sequence (P28223 whole entry): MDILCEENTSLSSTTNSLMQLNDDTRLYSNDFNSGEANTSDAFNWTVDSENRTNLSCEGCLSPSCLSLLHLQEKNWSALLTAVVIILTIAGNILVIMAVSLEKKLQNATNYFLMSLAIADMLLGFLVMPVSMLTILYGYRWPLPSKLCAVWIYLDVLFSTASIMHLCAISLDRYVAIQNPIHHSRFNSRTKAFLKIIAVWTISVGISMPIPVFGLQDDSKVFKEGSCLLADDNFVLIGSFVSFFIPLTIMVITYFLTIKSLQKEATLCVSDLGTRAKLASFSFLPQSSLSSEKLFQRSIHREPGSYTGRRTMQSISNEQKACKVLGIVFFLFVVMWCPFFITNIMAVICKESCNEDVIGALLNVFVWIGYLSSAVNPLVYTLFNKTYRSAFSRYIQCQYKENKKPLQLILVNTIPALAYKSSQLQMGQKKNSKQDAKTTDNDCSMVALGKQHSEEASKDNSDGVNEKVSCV
Chain of 5-HT2B (P41595 whole entry): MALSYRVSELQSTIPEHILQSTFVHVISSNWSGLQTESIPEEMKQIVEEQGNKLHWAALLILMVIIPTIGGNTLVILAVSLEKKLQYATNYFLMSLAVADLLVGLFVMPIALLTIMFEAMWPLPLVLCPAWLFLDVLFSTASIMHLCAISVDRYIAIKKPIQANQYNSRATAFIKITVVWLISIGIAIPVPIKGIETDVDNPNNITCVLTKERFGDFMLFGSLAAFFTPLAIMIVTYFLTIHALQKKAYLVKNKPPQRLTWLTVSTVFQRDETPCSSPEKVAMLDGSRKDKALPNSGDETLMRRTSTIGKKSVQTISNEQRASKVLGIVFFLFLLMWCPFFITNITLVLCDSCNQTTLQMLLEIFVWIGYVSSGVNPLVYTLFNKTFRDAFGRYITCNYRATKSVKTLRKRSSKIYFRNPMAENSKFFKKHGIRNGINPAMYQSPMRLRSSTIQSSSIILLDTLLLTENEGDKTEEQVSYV

Broadly, the Emax is the size of the effect at its maximum, as opposed to the concentration needed. Turning to `COc1cc(OC)c(OC)cc1CCNCc1ccccc1OCc1ccccc1` [(61)], at 5-HT2A [1], the EC50 was 3.31 nM and the Emax amounted to 72.9 ± 4.2%. Moreover, at 5-HT2B, the “5-HT2B Gq Dissociation (BRET) EMAX ± SEM (%5-HT)” value is listed as “No activity” and the “5-HT2B Gq Dissociation (BRET) pEC50 ± SEM” value is on record as “No activity”. The “5-HT2A Gq dissociation pEC50” value at 5-HT2A [2] (BRET, mean ± SEM) was “No activity”. Besides, the Emax on 5-HT2A [2] is less than 10%. Besides, in the test on male C57BL/6J mice, the “Induction of the HTR in mice (in words)” value is on record as “lacked a HTR; also recorded: do not induce the HTR” and the “Max HTR response during a 30-min assessment (maximum counts ÷ baseline response)” value is reported as 1.4-fold increase. Also, the ED50 in the test on male C57BL/6J mice (setting [3]) was greater than 30 mg/kg. Further, on 5-HT2C, the “5-HT2C Gq Dissociation (BRET) EMAX ± SEM (%5-HT)” value is given as “No Activity” and the “5-HT2C Gq Dissociation (BRET) pEC50 ± SEM” value is on record as “No Activity”.
For the molecule `COc1cc(CCNCc2ccccc2OC)c(OC)cc1I` [Compound 25I-NBOMe, reference compound], the EC50 was 0.525 nM at 5-HT2A [1]; 3.39 nM at 5-HT2B (read-out: 5-HT2B Gq Dissociation (BRET) pEC50 ± SEM (converted)); 0.355 nM at 5-HT2A [2] (BRET, mean ± SEM); 0.0977 nM on 5-HT2C. Also, the Emax at 5-HT2A [1] came out at 137 ± 3.7%; at 5-HT2B (read-out: 5-HT2B Gq Dissociation (BRET) EMAX ± SEM (%5-HT)), 78.6 ± 2.6%; at 5-HT2C, 124 ± 3.1%. In addition, the “5-HT2A Gq Emax (% 5-HT)” value at 5-HT2A [2] (BRET, mean ± SEM) amounted to 99.8 ± 1.2 % 5-HT. The “Max HTR response during a 30-min assessment (maximum counts ÷ baseline response)” value in the test with male C57BL/6J mice was 16.0-fold increase. The ED50 in the test with male C57BL/6J mice (setting [4]) came to 0.17 µmol/kg; in the test with male C57BL/6J mice (setting [3]) it was 0.078 mg/kg.
For the molecule `COc1cc(CCNCc2ccccc2OC)c(OC)cc1C` [25D-NBOMe (26)], the Emax is 126 ± 3.4% on 5-HT2A [1] and no less than 76% on 5-HT2A [2]. In addition, at 5-HT2A [2] (BRET, mean ± SEM), the “5-HT2A Gq Emax (% 5-HT)” value turned out to be 93.0 ± 1.3 % 5-HT. Moreover, the “Max HTR response during a 30-min assessment (maximum counts ÷ baseline response)” value with male C57BL/6J mice is 15.6-fold increase. For the same molecule, the ED50 is 0.64 µmol/kg in the test on male C57BL/6J mice (setting [4]) and 0.23 mg/kg in the test with male C57BL/6J mice (setting [3]).
For the molecule `COc1cc(OC)c(OC)cc1CCNCc1cccc2cccnc12` [(54)], the EC50 on 5-HT2A [1] is 8.51 nM; at 5-HT2A [2] (BRET, mean ± SEM), 11.2 nM; at 5-HT2C it was 14.8 nM. In addition, the Emax on 5-HT2A [1] was found to be 100 ± 3.5%; on 5-HT2A [2], 54.3 ± 1.5%; at 5-HT2C it was 90.5 ± 3.1%. For the same molecule, the “5-HT2B Gq Dissociation (BRET) EMAX ± SEM (%5-HT)” value at 5-HT2B is reported as “No activity”. In addition, on 5-HT2B, the “5-HT2B Gq Dissociation (BRET) pEC50 ± SEM” value was “No activity”.
Consider `COc1cc(Br)ccc1CCNCc1cccc(C)c1O` [(41)], for which the EC50 on 5-HT2A [1] is 2.51 nM; at 5-HT2A [2] (BRET, mean ± SEM) it was 2.24 nM; on 5-HT2C, 4.9 nM. Further, the Emax came out at 86.6 ± 3.9% at 5-HT2A [1], 68.7 ± 1.3% at 5-HT2A [2] and 72.2 ± 1.6% on 5-HT2C. Besides, the “5-HT2B Gq Dissociation (BRET) EMAX ± SEM (%5-HT)” value at 5-HT2B was “No activity”. The “5-HT2B Gq Dissociation (BRET) pEC50 ± SEM” value at 5-HT2B is listed as “No activity”.
